Data: patent publication US20260001879A1, “COMPOUNDS AS MYT1 INHIBITORS” (WIGEN BIOMMEDICINE TECHNOLOGY (SHANGHAI) CO., LTD., priority 2022, published 2026)

How the values were obtained:
MIA PaCa-2 cells [1] = experiment: In vitro anti-proliferative activity in combination with gemcitabine against MIA PaCa-2 cells; assay type: cell-based
Method: MIA PaCa-2 cells were seeded on a 384-well plate at 3000 cells/well, and 20 nM gemcitabine was added. After overnight adherence culture, DMSO or the compounds serially diluted 1:5 from 1000 nM were added. The viability was assessed 72 h after dosing by measuring the intracellular ATP content. The inhibition percentage of viable cells by the compounds was calculated by comparing with the DMSO group, and the IC50 value was calculated.

recombinant protein MYT1 = recombinant protein MYT1 (Homo sapiens (Human), UniProt Q99640); experiment: In vitro assay for inhibiting MYT1 kinase activity (ADP-GLO); assay type: biochemical; settings: 10 μM ATP, read-out: Inhibitory activity against recombinant protein MYT1 IC50
recombinant protein MYT1, sequence (Q99640 whole entry): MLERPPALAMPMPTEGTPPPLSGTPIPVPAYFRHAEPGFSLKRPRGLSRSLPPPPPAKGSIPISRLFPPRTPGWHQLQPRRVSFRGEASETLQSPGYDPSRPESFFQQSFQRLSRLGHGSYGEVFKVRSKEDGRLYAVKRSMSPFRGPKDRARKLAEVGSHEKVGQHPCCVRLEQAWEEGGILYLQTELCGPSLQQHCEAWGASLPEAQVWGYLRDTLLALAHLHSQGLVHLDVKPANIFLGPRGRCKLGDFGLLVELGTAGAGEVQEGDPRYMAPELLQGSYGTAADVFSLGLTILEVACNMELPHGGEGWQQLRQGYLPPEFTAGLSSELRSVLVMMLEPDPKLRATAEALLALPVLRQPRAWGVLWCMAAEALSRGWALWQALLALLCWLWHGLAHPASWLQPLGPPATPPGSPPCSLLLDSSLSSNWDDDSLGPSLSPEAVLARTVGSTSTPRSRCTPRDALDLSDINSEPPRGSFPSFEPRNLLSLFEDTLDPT
Method: Recombinant MYT1 protein and the compounds were pre-incubated at room temperature for 15 min, and 10 μM ATP was then added to start the reaction. The mixture was incubated at room temperature for another 60 min, and the ADP-GLO reagent from Promega was then added. The resulting mixture was incubated in the dark for 40 min, a detection solution was then added, and the mixture was incubated for another 45-60 min. The chemiluminescence was determined using ENVISION. The inhibition rate and IC50 were calculated compared to the DMSO group.

MIA PaCa-2 cells [2] = experiment: In vitro anti-proliferative activity against MIA PaCa-2 cells (compound alone); assay type: cell-based; settings: intracellular ATP content
Method: MIA PaCa-2 cells were seeded on a 384-well plate at 3000 cells/well. After overnight adherence culture, DMSO or the compounds serially diluted 1:5 from 10 μM were added. The viability was assessed 72 h after dosing by measuring the intracellular ATP content. The inhibition percentage of viable cells by the compounds was calculated by comparing with the DMSO group, and the IC50 value was calculated.

in vitro = settings: dog
Method: (§1) In vitro passive permeability or the ability to serve as a P-glycoprotein (P-gp) transport substrate was tested using MDCK cells (MDCK wild type) or MDCK cells stably transduced with MDRI (MDCK-MDRI), respectively. The permeability experiment was performed in duplicate in a transwell system at a single concentration (5 μM). The cells were incubated for […] Apical-to-basolateral (A to B, A-B) transport and basolateral-to-apical (B to A, B-A) transport of the corresponding compound were determined, and the permeation rate (apparent permeability) (Papp×10^−6 cm/sec) and efflux ratio (Papp (B−A)/Papp (A−B)) of the test compound were calculated.

[3] = system: P-glycoprotein (P-gp, MDR1); experiment: in vitro; settings: dog; for Papp A→B / Papp B→A: 5 μM
Method: as §1

[4] = read-out: Anti-proliferative activity against MIA PaCa-2 cells (20 nM gemcitabine) IC50, with 20 nM gemcitabine, 72 h, intracellular ATP content
[5] = Homo sapiens, MIA PaCa-2, 72 h, read-out: Anti-proliferative activity against MIA PaCa-2 cells (20 nM gemcitabine) IC50, with 20 nM gemcitabine, 72 h, intracellular ATP content

## Cc1ccc(O)c(C)c1-n1c(N)c(C(N)=O)c2cc3c(nc21)CCN(C)C3 (atropisomer, axis not shown) [Compound 98]
MIA PaCa-2 cells [1]; [4]
  IC50: > 1000 nM
Recombinant protein MYT1
  IC50: ≤ 200 nM
MIA PaCa-2 cells [2]; 72 h
  IC50: > 10 µM

## Cc1cc2c(C(N)=O)c(N)n(-c3c(C)c(O)cc4c3CCC4)c2nc1C (atropisomer, axis not shown) [Compound 117]
MIA PaCa-2 cells [1]; [4]
  IC50: > 1000 nM

## Cc1cc2c(C(N)=O)c(N)n(-c3c(C)c(O)cc(F)c3C)c2nc1C (single isomer, unassigned) [Compound 3]
MIA PaCa-2 cells [1]; [4]
  IC50: 1230 nM
Recombinant protein MYT1
  IC50: ≤ 200 nM
MIA PaCa-2 cells [2]; 72 h
  IC50: > 10 µM

## Cc1cc2c(C(N)=O)c(N)n(-c3c(C)cc(F)c(O)c3C)c2nc1C (single isomer, unassigned) [Compound 6]
MIA PaCa-2 cells [1]; [4]
  IC50: 165 nM
Recombinant protein MYT1
  IC50: ≤ 200 nM
MIA PaCa-2 cells [2]; Homo sapiens, MIA PaCa-2, 72 h
  IC50: > 10 µM

## Cc1cc2c(C(N)=O)c(N)n(-c3c(C)cc(F)c(O)c3C)c2nc1C (single isomer, unassigned) [Compound 7]
MIA PaCa-2 cells [1]; [4]
  IC50: > 1000 nM
Recombinant protein MYT1
  IC50: ≤ 200 nM
MIA PaCa-2 cells [2]; 72 h
  IC50: > 10 µM

## Cc1ccc(O)c(C)c1-n1c(N)c(C(N)=O)c2cc(C#N)c(C)nc21 [Compound 10]
MIA PaCa-2 cells [1]; [4]
  IC50: 45 nM
Recombinant protein MYT1
  IC50: ≤ 200 nM
MIA PaCa-2 cells [2]; 72 h
  IC50: 4.24 µM

## Cc1ccc(O)c(C)c1-n1c(N)c(C(N)=O)c2cc(C#N)c(C)nc21 [Compound 11]
MIA PaCa-2 cells [1]; [4]
  IC50: > 1000 nM
Recombinant protein MYT1
  IC50: ≤ 200 nM
MIA PaCa-2 cells [2]; 72 h
  IC50: > 10 µM

## Cc1cc2c(C(N)=O)c(N)n(-c3c(C)ccc(O)c3C)c2nc1C#N [Compound 12]
MIA PaCa-2 cells [1]; [5]
  IC50: 228 nM
Recombinant protein MYT1
  IC50: ≤ 200 nM

## Cc1ccc(O)c(C)c1-n1c(N)c(C(N)=O)c2cc3c(nc21)COC3 [Compound 16]
MIA PaCa-2 cells [1]; [4]
  IC50: 101 nM
Recombinant protein MYT1
  IC50: ≤ 200 nM
MIA PaCa-2 cells [2]; Homo sapiens, MIA PaCa-2, 72 h
  IC50: > 10 µM

## Cc1cc2c(C(N)=O)c(N)n(-c3c(C)c(O)cc4c3CCC4)c2nc1C [Compound 116]
MIA PaCa-2 cells [1]; [5]
  IC50: > 1000 nM

## Cc1cc2c(C(N)=O)c(N)n(-c3c(C)cc4c(c3C)NCC4)c2nc1C [Compound 150]
MIA PaCa-2 cells [1]; [5]
  IC50: > 1000 nM

## Cc1cc2c(C(N)=O)c(N)n(-c3c(C)cc4c(c3C)NCC4)c2nc1C [Compound 151]
MIA PaCa-2 cells [1]; [4]
  IC50: > 1000 nM

## Cc1cc2c(C(N)=O)c(N)n(-c3c(C)cc4cc[nH]c4c3C)c2nc1C [Compound 153]
MIA PaCa-2 cells [1]; [5]
  IC50: > 1000 nM
Recombinant protein MYT1
  IC50: ≤ 200 nM

## Cc1cc2c(C(N)=O)c(N)n(-c3c(C)cc(F)c(O)c3C)c2cc1C#N [Compound 169]
Recombinant protein MYT1
  IC50: ≤ 200 nM

## Cc1ccc(O)c(C)c1-n1c(N)c(C(N)=O)c2cnc(C#N)cc21 [Compound 172]
Recombinant protein MYT1
  IC50: ≤ 200 nM

## Cc1cc2c(C(N)=O)c(N)n(-c3c(C)ccc(O)c3C)c2c(C#N)c1C [Compound 173]
Recombinant protein MYT1
  IC50: ≤ 200 nM

## Cc1cc2c(C(N)=O)c(N)n(-c3c(C)cnc(O)c3C)c2nc1C [Compound 177]
Recombinant protein MYT1
  IC50: ≤ 200 nM

## Cc1cc2c(C(N)=O)c(N)n(-c3c(C)ccc(=O)n3C)c2nc1C [Compound 178]
Recombinant protein MYT1
  IC50: ≤ 200 nM

## Cc1c(O)cc(F)c(C)c1-n1c(N)c(C(N)=O)c2cc3ccccc3nc21 [Compound 179]
Recombinant protein MYT1
  IC50: ≤ 200 nM

## Cc1cc(F)c(O)c(C)c1-n1c(N)c(C(N)=O)c2cc3ccccc3nc21 [Compound 180]
Recombinant protein MYT1
  IC50: ≤ 200 nM

## Cc1ccc(O)c(C(F)(F)F)c1-n1c(N)c(C(N)=O)c2cc(C#N)c(C)nc21 [Compound 181]
Recombinant protein MYT1
  IC50: ≤ 200 nM

## Cc1nc2c(cc1C#N)c(C(N)=O)c(N)n2-c1c(C(F)(F)F)ccc(O)c1C [Compound 184]
Recombinant protein MYT1
  IC50: ≤ 200 nM

## Cc1cc2c(C(N)=O)c(N)n(-c3c(C(F)(F)F)ccc(O)c3C)c2nc1C#N [Compound 186]
Recombinant protein MYT1
  IC50: ≤ 200 nM

## Cc1cc2c(C(N)=O)c(N)n(-c3c(C)ccc(O)c3C(F)(F)F)c2nc1C#N [Compound 187]
Recombinant protein MYT1
  IC50: ≤ 200 nM

## Cc1cc2c(C(N)=O)c(N)n(-c3c(C)c(O)cc(Cl)c3C)c2nc1C [Compound 193]
Recombinant protein MYT1
  IC50: ≤ 200 nM

## Cc1cc2c(C(N)=O)c(N)n(-c3c(C)c(O)cc(Br)c3C)c2nc1C [Compound 196]
Recombinant protein MYT1
  IC50: ≤ 200 nM

## Cc1c(O)cc(F)c(C)c1-n1c(N)c(C(N)=O)c2cc3c(nc21)CCC3 [Compound 199]
Recombinant protein MYT1
  IC50: ≤ 200 nM

## Cc1c(O)cc(F)c(C)c1-n1c(N)c(C(N)=O)c2cc3c(nc21)CCCC3 [Compound 202]
Recombinant protein MYT1
  IC50: ≤ 200 nM

## Cc1cc2c(C(N)=O)c(N)n(-c3c(C)c(C)cc(O)c3C)c2nc1C [Compound 205]
Recombinant protein MYT1
  IC50: ≤ 200 nM

## Cc1cc2c(C(N)=O)c(N)n(-c3c(C)c(O)cc(C(F)(F)F)c3C)c2nc1C [Compound 208]
Recombinant protein MYT1
  IC50: ≤ 200 nM

## Cc1c(O)cc(F)c(C)c1-n1c(N)c(C(N)=O)c2cc3c(nc21)CC=C3 [Compound 211]
Recombinant protein MYT1
  IC50: ≤ 200 nM

## Cc1c(O)cc(F)c(C)c1-n1c(N)c(C(N)=O)c2cc3c(nc21)C=CC3 [Compound 214]
Recombinant protein MYT1
  IC50: ≤ 200 nM

## Cc1cc2c(C(N)=O)c(N)n(-c3c(C)c(O)cc(I)c3C)c2nc1C [Compound 217]
Recombinant protein MYT1
  IC50: ≤ 200 nM

## Cc1cc2c(C(N)=O)c(N)n(-c3c(C)c(O)cc(C#N)c3C)c2nc1C [Compound 220]
Recombinant protein MYT1
  IC50: ≤ 200 nM

## COc1cc(O)c(C)c(-n2c(N)c(C(N)=O)c3cc(C)c(C)nc32)c1C [Compound 223]
Recombinant protein MYT1
  IC50: ≤ 200 nM

## C[C@H]1O[C@@H](O[C@H]2[C@@H](O)C[C@H](O[C@H]3[C@@H](O)C[C@H](O[C@H]4CC[C@@]5(C)[C@H](CC[C@@H]6[C@@H]5C[C@@H](O)[C@]5(C)[C@@H](C7=CC(=O)OC7)CC[C@]65O)C4)O[C@@H]3C)O[C@@H]2C)C[C@H](O)[C@@H]1O [Digoxin]
In vitro; MDCK
  efflux ratio at 90 min, 5 μM: 2.69
In vitro; MDCK, Papp A-B Mean
  Papp A→B at 90 min, 5 µM: 1.79 ×10⁻⁶ cm/s
In vitro; MDCK, Papp A-B Sample - 01
  Papp A→B at 90 min, 5 µM: 1.9 ×10⁻⁶ cm/s
In vitro; MDCK, Papp A-B Sample - 02
  Papp A→B at 90 min, 5 µM: 1.68 ×10⁻⁶ cm/s
In vitro; MDCK, Papp B-A Mean
  Papp B→A at 90 min, 5 µM: 4.8 ×10⁻⁶ cm/s
In vitro; MDCK, Papp B-A Sample - 01
  Papp B→A at 90 min, 5 µM: 4.64 ×10⁻⁶ cm/s
In vitro; MDCK, Papp B-A Sample - 02
  Papp B→A at 90 min, 5 µM: 4.96 ×10⁻⁶ cm/s
[3]; MDCK-MDR1
  efflux ratio at 90 min, 5 μM: 21.4
[3]; MDCK-MDR1, Papp A-B Mean
  Papp A→B at 90 min, 5 µM: 0.96 ×10⁻⁶ cm/s
[3]; MDCK-MDR1, Papp A-B Sample - 01
  Papp A→B at 90 min, 5 µM: 0.96 ×10⁻⁶ cm/s
[3]; MDCK-MDR1, Papp A-B Sample - 02
  Papp A→B at 90 min, 5 µM: 0.96 ×10⁻⁶ cm/s
[3]; MDCK-MDR1, Papp B-A Mean
  Papp B→A at 90 min, 5 µM: 20.6 ×10⁻⁶ cm/s
[3]; MDCK-MDR1, Papp B-A Sample - 01
  Papp B→A at 90 min, 5 µM: 17.7 ×10⁻⁶ cm/s
[3]; MDCK-MDR1, Papp B-A Sample - 02
  Papp B→A at 90 min, 5 µM: 23.5 ×10⁻⁶ cm/s

## COCCc1ccc(OCC(O)CNC(C)C)cc1 (centres unmarked) [Metoprolol, metoprolol]
In vitro; Papp A-B Mean, MDCK-Wild type, A-B, 5 μM, mean
  Papp A→B at 90 min, 5 µM: 24.3 ×10⁻⁶ cm/s
In vitro; Papp A-B Sample - 01, MDCK-Wild type, A-B, 5 μM, replicate 01
  Papp A→B at 90 min, 5 µM: 26.5 ×10⁻⁶ cm/s
In vitro; Papp A-B Sample - 02, MDCK-Wild type, A-B, 5 μM, replicate 02
  Papp A→B at 90 min, 5 µM: 22.2 ×10⁻⁶ cm/s
In vitro; Papp B-A Mean, MDCK-Wild type, B-A, 5 μM, mean
  Papp B→A at 90 min, 5 µM: 21.3 ×10⁻⁶ cm/s
In vitro; Papp B-A Sample - 01, MDCK-Wild type, B-A, 5 μM, replicate 01
  Papp B→A at 90 min, 5 µM: 18.6 ×10⁻⁶ cm/s
In vitro; Papp B-A Sample - 02, MDCK-Wild type, B-A, 5 μM, replicate 02
  Papp B→A at 90 min, 5 µM: 24 ×10⁻⁶ cm/s
[3]; MDCK-MDR1, Papp A-B Mean, MDCK-MDR1, A-B, mean
  Papp A→B: 37 ×10⁻⁶ cm/s
[3]; MDCK-MDR1, Papp A-B Sample - 01, MDCK-MDR1, A-B, replicate 01
  Papp A→B: 37.6 ×10⁻⁶ cm/s
[3]; MDCK-MDR1, Papp A-B Sample - 02, MDCK-MDR1, A-B, replicate 02
  Papp A→B: 36.3 ×10⁻⁶ cm/s
[3]; MDCK-MDR1, Papp B-A Mean, MDCK-MDR1, B-A, mean
  Papp B→A: 20.1 ×10⁻⁶ cm/s
[3]; MDCK-MDR1, Papp B-A Sample - 01, MDCK-MDR1, B-A, replicate 01
  Papp B→A: 20.1 ×10⁻⁶ cm/s
[3]; MDCK-MDR1, Papp B-A Sample - 02, MDCK-MDR1, B-A, replicate 02
  Papp B→A: 20.2 ×10⁻⁶ cm/s
